System: primary human T lymphocytes
Experiment: Anti-CD3 induced T lymphocyte activation/proliferation (flow cytometry)
Assay type: cell-based
Settings: 25 μM
Experimental: In order to assess the ability of MIF antagonists to disrupt autoimmune-associated T cell activation, primary human T lymphocytes were prepared using standard Ficoll-gradient preparations. 1×10^6 lymphocytes/ml were resuspended in RPMI/10% FCS and plated onto anti-CD3 antibodies previously immobilized onto tissue culture plates. Control, vehicle control (0.1% DMSO), 25 μM 4-IPP or 25 μM ACT-003 were added to cells and allowed to incubate for 48 hours. Cells were lifted, washed and stained with anti-CD4 or anti-CD8 antibodies and then analyzed by flow cytometry.
To validate the effects of MIF antagonists on T lymphocyte activation, experiments were set up exactly as described above and, 48 hours later, treated and untreated lymphocytes were stained with an anti-CD25 antibody. CD25 is also known as the high affinity IL-2 receptor—a very well characterized and frequently marker of T lymphocyte activation.
In order to investigate the relative kinetics of when 4-IPP and ACT-003 are acting in blocking T lymphocyte activation, we repeated the experiment described above but harvested lymphocytes only 16 hours after anti-CD3 plating. At this early time point during T lymphocyte activation, CD69 is found to be expressed and is usually considered to be an “early marker” of lymphocyte activation.
Finally, to confirm that proliferation of CD4+ and CD8+ T lymphocytes is blocked by 4-IPP-based MIF antagonists, we repeated the experiment as described above, added labeled-BrdU to cells, stained with either labeled anti-CD4 or anti-CD8 antibodies and then assessed relative CD4/CD8 and BrdU labeling in each treatment group.

## Fc1ccccc1-c1cc(I)ncn1 [ACT-MIF-003, 4-Iodo-6-(2-fluorophenyl)pyrimidine]
16 hours, FIGS. 17 and 18
  CD69 expression: only a marginal effect on CD69 expression
48 hours, FIGS. 13 and 14
  CD4 and CD8 T lymphocytes after anti-CD3 activation: significantly fewer CD4 and CD8 T lymphocytes
48 hours, FIGS. 15 and 16
  Anti-CD3-induced CD25 expression: almost completely blocked the anti-CD3-induced CD25 expression
48 hours, FIGS. 19 and 20
  BrdU labeling of CD8+ and CD4+ T lymphocytes (proliferation): almost completely blocked BrdU labeling in both CD8+ and CD4+ T lymphocytes
